The first assay has as its target human H4 receptor (Homo sapiens (Human), UniProt Q9H3N8). As to the kind of experiment: Binding assay on recombinant human histamine H4 receptor ([3H]histamine competition, SK-N-MC cell membranes). The conditions noted are these: membranes harvested with 96 well Brandel system; [3H]histamine 10 nM; average of results; read-out: Brandel Ki. As to the method: Binding Assay on Recombinant Human Histamine H4Receptor
Cell pellets from SK-N-MC cells stably or transiently transfected with human H4 receptor (NCBI accession No. AF312230) were used for the binding assays. Cell pellets were homogenized in 50 mM Tris/5 mM EDTA buffer and supernatants from an 800 g spin were collected and recentrifuged at 30,000 g for 30 min. Pellets were rehomogenized in 50 mM Tris/5 mM EDTA buffer. […] Membranes were harvested by rapid filtration using the 96 well Brandel system (Table 1, Brandel) or a cell harvester (Table 1, Cell Harvester) using a Whatman GF/C filter or filter plates treated with 0.5% polyethylenimine (PEI), and washed 4 times with ice-cold 50 mM Tris/5 mM EDTA buffer. Filters were then dried, mixed with scintillant and radioactive counts were determined. […] Where activity is shown as greater than (>) a particular value, the value is the highest concentration tested.
human H4 receptor, sequence (Q9H3N8 whole entry): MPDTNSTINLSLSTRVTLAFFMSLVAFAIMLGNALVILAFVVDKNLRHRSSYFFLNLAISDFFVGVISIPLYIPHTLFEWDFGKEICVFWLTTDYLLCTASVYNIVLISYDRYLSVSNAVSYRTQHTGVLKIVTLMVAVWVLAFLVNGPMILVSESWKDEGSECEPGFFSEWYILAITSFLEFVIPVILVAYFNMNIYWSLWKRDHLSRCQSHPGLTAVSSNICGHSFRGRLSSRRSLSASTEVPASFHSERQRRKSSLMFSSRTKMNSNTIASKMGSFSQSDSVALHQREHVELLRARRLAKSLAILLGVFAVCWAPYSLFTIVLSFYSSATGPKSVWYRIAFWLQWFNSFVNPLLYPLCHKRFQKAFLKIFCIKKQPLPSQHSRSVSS
For `CC(C)Nc1nccc(N2CCN(C)CC2)n1` [Example 53, N-(1-Methylethyl)-4-(4-methylpiperazin-1-yl)pyrimidin-2-amine], the Ki was 24.3 nM.

Take `N[C@@H]1CCN(c2ccnc(NC3CC3)n2)C1` [Example 55, 4-[(3R)-3-Aminopyrrolidin-1-yl]-N-cyclopropylpyrimidin-2-amine]: the inhibition constant Ki worked out at 138 nM.

`CC(C)CNc1nccc(N2CCNCC2)n1` [Example 65, Isobutyl-(4-piperazin-1-yl-pyrimidin-2-yl)-amine]: the Ki worked out at 46.3 nM.

In the case of `c1cc(N2CCNCC2)nc(NCC2CC2)n1` [Example 66, Cyclopropylmethyl-(4-piperazin-1-yl-pyrimidin-2-yl)-amine], the inhibition constant (Ki) was determined as 12.2 nM.

`c1cc(N2CCNCC2)nc(NC2CC3CCC2C3)n1` (stereo not drawn) [Example 70, Bicyclo[2.2.1]hept-2-yl-(4-piperazin-1-yl-pyrimidin-2-yl)-amine]: the Ki was 240 nM.

With `CCCCNc1nccc(N2CC[C@@H](NC)C2)n1` [Example 73, Butyl-[4-(3R)-(3-methylamino-pyrrolidin-1-yl)-pyrimidin-2-yl]-amine], the Ki was 2 nM.

The assay is the same for the next values; noted with them: membranes harvested with cell harvester; [3H]histamine 10 nM; average of results; read-out: Cell Harvester Ki.
With `CCCCNc1nccc(N2CC[C@@H](N)C2)n1` [Example 46, 4-[(3R)-3-Aminopyrrolidin-1-yl]-N-butylpyrimidin-2-amine], the Ki is 8.4 nM.

Regarding `CCCCNc1nccc(N2CCN(C)CC2)n1` [Example 47, N-Butyl-4-(4-methylpiperazin-1-yl)pyrimidin-2-amine], the Ki came to 33.2 nM.

Take `CN1CCN(c2ccnc(NC3CCCC3)n2)CC1` [Example 48, N-Cyclopentyl-4-(4-methylpiperazin-1-yl)pyrimidin-2-amine]: the Ki was 26.7 nM.

For `CN1CCN(c2ccnc(NCC3CCCO3)n2)CC1` (stereo not drawn) [Example 50, 4-(4-Methylpiperazin-1-yl)-N-(tetrahydrofuran-2-ylmethyl)pyrimidin-2-amine], the Ki is 33.2 nM.

Take `N[C@@H]1CCN(c2ccnc(NCC3CCCO3)n2)C1` (stereo partly drawn) [Example 51, 4-[(R)-3-Aminopyrrolidin-1-yl]-N-(tetrahydrofuran-2-ylmethyl)pyrimidin-2-amine]: the Ki was found to be 123 nM.

Take `CC(C)Nc1nccc(N2CC[C@@H](N)C2)n1` [Example 52, 4-[(3R)-3-Aminopyrrolidin-1-yl]-N-(1-methylethyl)pyrimidin-2-amine]: the Ki came to 33.4 nM.

In the case of `CC(C)Nc1nccc(N2CCN(C)CC2)n1` [Example 53, N-(1-Methylethyl)-4-(4-methylpiperazin-1-yl)pyrimidin-2-amine], the Ki was 85.7 nM.

On to `CN1CCN(c2ccnc(NC3CCC3)n2)CC1` [Example 54, N-Cyclobutyl-4-(4-methylpiperazin-1-yl)pyrimidin-2-amine], for which the Ki is 87.9 nM.

Turning to `N[C@@H]1CCN(c2ccnc(NC3CC3)n2)C1` [Example 55, 4-[(3R)-3-Aminopyrrolidin-1-yl]-N-cyclopropylpyrimidin-2-amine], the Ki is 102 nM.

With `CN1CCN(c2ccnc(NC3CC3)n2)CC1` [Example 56, N-Cyclopropyl-4-(4-methylpiperazin-1-yl)pyrimidin-2-amine], the inhibition constant Ki was 568 nM.

Regarding `N[C@@H]1CCN(c2ccnc(NCc3ccc(F)cc3)n2)C1` [Example 57, 4-[(3R)-3-Aminopyrrolidin-1-yl]-N-(4-fluorobenzyl)pyrimidin-2-amine], the Ki was determined as 140 nM.

For the molecule `CN1CCN(c2ccnc(NCc3ccc(F)cc3)n2)CC1` [Example 58, N-(4-Fluorobenzyl)-4-(4-methylpiperazin-1-yl)pyrimidin-2-amine], the Ki was found to be 342 nM.

For `COCCNc1nccc(N2CC[C@@H](N)C2)n1` [Example 59, 4-[(3R)-3-Aminopyrrolidin-1-yl]-N-(2-methoxyethyl)pyrimidin-2-amine], the Ki came to 190 nM.

For `COCCNc1nccc(N2CCN(C)CC2)n1` [Example 60, N-(2-Methoxyethyl)-4-(4-methylpiperazin-1-yl)pyrimidin-2-amine], the Ki was 342 nM.

`N[C@@H]1CCN(c2ccnc(NCc3ccccn3)n2)C1` [Example 61]: the Ki is more than 10000 nM.

Consider `CN1CCN(c2ccnc(NCc3ccccn3)n2)CC1` [Example 62, 4-(4-Methylpiperazin-1-yl)-N-(pyridin-2-ylmethyl)pyrimidin-2-amine], for which the Ki is more than 10000 nM.

`c1cc(N2CCNCC2)nc(NC2CCCC2)n1` [Example 63, Cyclopentyl-(4-piperazin-1-yl-pyrimidin-2-yl)-amine]: the Ki was found to be 293 nM.

`CC(C)CNc1nccc(N2CCNCC2)n1` [Example 65, Isobutyl-(4-piperazin-1-yl-pyrimidin-2-yl)-amine]: the Ki stood at 68.6 nM.

For `c1cc(N2CCNCC2)nc(NCC2CC2)n1` [Example 66, Cyclopropylmethyl-(4-piperazin-1-yl-pyrimidin-2-yl)-amine], the Ki was 56.8 nM.

Take `CC(C)Nc1nccc(N2CCNCC2)n1` [Example 67, Isopropyl-(4-piperazin-1-yl-pyrimidin-2-yl)amine]: the inhibitory constant (Ki) was 275 nM.

On to `CCCCNc1nccc(N2CCNCC2)n1` [Example 68, Butyl-(4-piperazin-1-yl-pyrimidin-2-yl)-amine], for which the Ki turned out to be 36.7 nM.

On to `c1cc(N2CCNCC2)nc(NC[C@H]2CCCO2)n1` [Example 69, (R)-(4-Piperazin-1-yl-pyrimidin-2-yl)-(tetrahydro-furan-2-ylmethyl)-amine], for which the Ki was more than 10000 nM.

Consider `c1cc(N2CCNCC2)nc(NC2CC3CCC2C3)n1` (stereo not drawn) [Example 70, Bicyclo[2.2.1]hept-2-yl-(4-piperazin-1-yl-pyrimidin-2-yl)-amine], for which the Ki was found to be 73 nM.

With `COCCNc1nccc(N2CCNCC2)n1` [Example 72, N-(2-Methoxyethyl)-4-piperazin-1-ylpyrimidin-2-amine], the Ki came to 376 nM.

As for `CCCCNc1nccc(N2CC[C@@H](NC)C2)n1` [Example 73, Butyl-[4-(3R)-(3-methylamino-pyrrolidin-1-yl)-pyrimidin-2-yl]-amine], the Ki was 0.7 nM.

With `CN[C@@H]1CCN(c2ccnc(NC3CC4CCC3C4)n2)C1` (stereo partly drawn) [Example 74, Bicyclo[2.2.1]hept-2-yl-[4-(3R)-(3-methylamino-pyrrolidin-1-yl)-pyrimidin-2-yl]-amine], the Ki turned out to be 1.2 nM.

Consider `CN[C@@H]1CCN(c2ccnc(NCC3CC3)n2)C1` [Example 77, Cyclopropylmethyl-[4-(3R)-(3-methylamino-pyrrolidin-1-yl)-pyrimidin-2-yl]-amine], for which the Ki came to 3.3 nM.

Turning to `CN[C@@H]1CCN(c2ccnc(NC(C)C)n2)C1` [Example 78, Isopropyl-[4-(3R)-(3-methylamino-pyrrolidin-1-yl)-pyrimidin-2-yl]-amine], the Ki amounted to 6 nM.

As to `CN[C@@H]1CCN(c2ccnc(NCc3ccc(F)cc3)n2)C1` [Example 79, (4-Fluoro-benzyl)-[4-(3R)-(3-methylamino-pyrrolidin-1-yl)-pyrimidin-2-yl]amine], the Ki is 11.6 nM.

As to `CN[C@@H]1CCN(c2ccnc(NC3CC3)n2)C1` [Example 80, Cyclopropyl-[4-(3R)-(3-methylamino-pyrrolidin-1-yl)-pyrimidin-2-yl]-amine], the Ki came to 23.5 nM.

On to `CN[C@@H]1CCN(c2ccnc(NCC3CCCO3)n2)C1` (stereo partly drawn) [Example 81, [4-(3R)-(3-Methylamino-pyrrolidin-1-yl)-pyrimidin-2-yl]-(tetrahydro-furan-2-ylmethyl)-amine], for which the Ki came to 24.7 nM.

Turning to `CN[C@@H]1CCN(c2ccnc(NCCOC)n2)C1` [Example 82, (2-Methoxy-ethyl)-[4-(3R)-(3-methylamino-pyrrolidin-1-yl)-pyrimidin-2-yl]-amine], the Ki turned out to be 45.5 nM.

Regarding `CN[C@@H]1CCN(c2ccnc(NCc3ccccn3)n2)C1` [Example 83, [4-(3R)-(3-Methylamino-pyrrolidin-1-yl)-pyrimidin-2-yl]-pyridin-2-ylmethyl-amine], the Ki is 196 nM.

`CCCCNc1nccc(N2CC(N)C2)n1` [Example 84, [4-(3-Amino-azetidin-1-yl)-pyrimidin-2-yl]-butyl-amine]: the Ki was found to be 33.3 nM.

Turning to `NC1CN(c2ccnc(NC3CCCC3)n2)C1` [Example 85, 4-(3-Aminoazetidin-1-yl)-N-cyclopentylpyrimidin-2-amine], the Ki worked out at 18.2 nM.

For the molecule `NC1CN(c2ccnc(NCC3CC3)n2)C1` [Example 86, 4-(3-Aminoazetidin-1-yl)-N-(cyclopropylmethyl)pyrimidin-2-amine], the Ki came to 33.7 nM.
